Assay results from article PMC8861431, “Tissue Pharmacokinetic Properties and Bystander Potential of Hypoxia-Activated Prodrug CP-506 by Agent-Based Modelling” (Frontiers in Pharmacology, 2022).
Where two headings read alike, the source gives them in different places.

Tests used:
[1] = Cellular uptake studies / cellular PK model; assay type: in vitro ADME, human; details: human, POR-overexpressing HCT-116 (POR-R) cell monolayer; Table S3, cellular PK model (extracellular instability); read-out: T1/2: time required to reduce the concentration to half its initial value (converted)
Protocol: (§1) The intracellular/extracellular partitioning ratio for CP-506 and its major metabolites was determined in monolayer cultures of POR-overexpressing HCT-116 cells, as described previously ([Hong et al., 2018b]). Briefly, cells (5 x 10^5 per well) were seeded with 350 µl medium into 24-well plates and left to attach for 2 h in a humidified 37°C incubator. Stock solutions of CP-506 were diluted and added with 50 µl medium to the well volume to achieve a final concentration of 100 µM. Samples were harvested at various time points for up to 3 h thereafter. Aerobic experiments were performed under standard tissue culture conditions (21% O2), and the anoxic experiments in parallel in a H2/Pd-catalyst-scrubbed anaerobic chamber as described. The well volume was spiked with [^3H]-mannitol immediately before sample harvest and treated with two-volumes of ice-cold acetonitrile containing 2 µM of the deuterated (D8) internal standards for each CP-506, CP-506H and CP-506M. The cell monolayer was then treated with 100 µl of this crashing solution. Samples were stored at −80°C until LC-MS/MS analysis. The cellular exclusion of [^3H]-mannitol was used to account for the contribution of the extracellular medium toward determinations of the intracellular concentration, as described previously ([Foehrenbacher et al., 2013a]).
(§2) An agent-based model (ABM) employing a one-dimensional approximation for monolayers was used to develop a cellular PK model, as described in further detail elsewhere ([Hong et al., 2018b]; [Mao et al., 2018]). The mathematical framework assumes that solute concentrations in the medium are dependent only on the depth (on the z coordinate) and not the lateral position (x,y) so that all cells are exposed to the same concentration of nutrients and drugs within the monolayer culture. Moreover, all cells have the same rate of metabolism and volume growth at any instance with variability allowed in cell volume, rate of cell division and cell death. Monolayer ABM simulations were performed on a desktop Windows PC (Intel core I7 processor) from a Qt (Qt Company, https://www.qt.io/) graphical user interface passing parameters to a DLL built with Fortran95. The monolayer ABM uses a finite difference method to solve reaction-diffusion equations for each compound (N) in the medium and cells. Parameters for the cellular uptake and metabolism were fitted to the concentration-time profiles of CP-506 and its metabolites in monolayer cultures of POR-R cells using a linear (first order) cell transport and metabolism model. Terms for the extracellular instability of CP-506 and its metabolites were set at their respective values in media stability studies, and media diffusion coefficients were estimated from the support membrane diffusion coefficients described below. Experimental data describing the kinetics of CP-506 uptake under aerobic conditions was fitted by adjusting the permeability coefficients kin and kout for each compound. These values were fixed for anoxic experiments to allow for parameter estimation of the rate of intracellular CP-506 metabolism (kmet0) as well as the intracellular/extracellular partitioning ratio (kin and kout) and metabolic instability (kmet0) for its cytotoxic metabolites.

[2] = test system: POR-overexpressing HCT-116 cells (POR-R) monolayer; experiment: Cellular uptake studies / cellular PK model; assay type: in vitro ADME, human; details: for k in: rate constant for transfer from the extracellular to intracellular volume / k out: rate constant for transfer from the intracellular to extracellular volume: Table 1, ABM parameter, estimated from partitioning in monolayer cultures; for kin: rate of transfer from the extracellular to the intracellular compartment / kout: rate of transfer from the intracellular to the extracellular compartment: Table S3, cellular PK model, monolayer ABM fit; for kmet: rate of metabolism to the next metabolite: Table S3, anoxic, CP-506 to CP-506H, CP-506H to CP-506M, CP-506M to CP-506M-Cl2; for Activator k met0: rate constant for the maximum rate of metabolism in POR-R cells under anoxia / kmet: rate of metabolism to the next metabolite: POR-R cells
Protocol: as §1, §2

[3] = test system: POR-overexpressing HCT-116 cells (POR-R) monolayer; details: cited from earlier work
[4] = test system: POR-overexpressing HCT-116 cells (POR-R) monolayer; experiment: Cellular uptake studies / cellular PK model; assay type: in vitro ADME, human; details: aerobic 21% O2, Co range 0.3–30 µM
[5] = ref Van Der Wiel et al., 2021; cited from earlier work
[6] = Table 1 footnote d: assumed equivalent to measured metabolites or derived from published estimates for PR-104A metabolites, ref Foehrenbacher et al., 2013a, Hong et al., 2018b
[7] = Table S3, fixed to fitted values for downstream metabolites of PR-104 ('metabolite 2'), ref (2,3)

SMILES | half-life at 100 µM [1] [min] | Activator k met0: rate constant for the maximum rate of metabolism in POR-R cells under anoxia [2] [min⁻¹] | k in: rate constant for transfer from the extracellular to intracellular volume [2] [min⁻¹] | k out: rate constant for transfer from the intracellular to extracellular volume [2] [min⁻¹] | kin: rate of transfer from the extracellular to the intracellular compartment [2] [min⁻¹] | kout: rate of transfer from the intracellular to the extracellular compartment [2] [min⁻¹] | kmet: rate of metabolism to the next metabolite [2] [min⁻¹] | Activator k met0: rate constant for the maximum rate of metabolism in POR-R cells under anoxia ([2]; footnote d: assumed equivalent to the measured metabolites or from published PR-104A estimates) | k in: rate constant for transfer from the extracellular to intracellular volume [3, 6] | k out: rate constant for transfer from the intracellular to extracellular volume [3, 6] | T1/2: time required to reduce the concentration to half its initial value [3, 7] [min] | kin: rate of transfer from the extracellular to the intracellular compartment [3, 7] [min⁻¹] | kout: rate of transfer from the intracellular to the extracellular compartment [3, 7] [min⁻¹] | Steady-state Ci/Ce ratio (cell uptake) ([2]; anoxic <1 ppm O2, POR-R monolayer) [fold] | Steady-state Ci/Ce ratio (cell uptake) [4] [fold] | O2 concentration above which prodrug activation and cytotoxicity are completely inhibited [5]
CCN1CCN(C(=O)c2cc(N(CCBr)CCOS(C)(=O)=O)c(S(C)(=O)=O)cc2N)CC1 [CP-506M, 2-((4-amino-5-(4-ethylpiperazine-1-carbonyl)-2-(methylsulfonyl)phenyl)(2-bromoethyl)amino)ethyl methanesulfonate] | 6.6 | 0.1 | 0.9 | 0.4 | 0.9 | 0.4 | 0.1 | – | – | – | – | – | – | – | – | –
CCN1CCN(C(=O)c2cc(N(CCBr)CCOS(C)(=O)=O)c(S(C)(=O)=O)cc2NO)CC1 [CP-506H, 2-((2-bromoethyl)(5-(4-ethylpiperazine-1-carbonyl)-4-(hydroxyamino)-2-(methylsulfonyl)phenyl)amino)ethyl methanesulfonate] | 12.6 | 0.09 | 0.9 | 0.25 | 0.9 | 0.25 | 0.09 | – | – | – | – | – | – | – | – | –
CCN1CCN(C(=O)c2cc(N(CCCl)CCCl)c(S(C)(=O)=O)cc2N)CC1 [CP-506M-Cl2, (2-Amino-5-(bis(2-chloroethyl)amino)-4-(methylsulfonyl)phenyl)(4-ethylpiperazin-1-yl)methanone] | – | – | – | – | – | – | – | 0.1 ^d min^−1 | 0.9 ^d min^−1 | 0.3 ^d min^−1 | 6.6 | 0.9 | 0.3 | – | – | –
CCN1CCN(C(=O)c2cc(N(CCBr)CCOS(C)(=O)=O)c(S(C)(=O)=O)cc2[N+](=O)[O-])CC1 [CP-506, 2-[(2-bromoethyl)-5-[(4-ethyl-1-piperazinyl)carbonyl]-2-(methylsulfonyl)-4-nitroanilino]ethyl methanesulfonate] | 1200 | 0.12 | 3.7 | 0.06 | 3.7 | 0.06 | 0.12 | – | – | – | – | – | – | 40 | 50 | above 1 µM O2
